Data as given in patent US8388982B2, “Photo-induced damage mitigating agents and preparation and methods of use thereof” (priority 2008, dated 2013).

Key:
polymerase = experiment: Sequencing-by-incorporation readlength; assay type: biochemical; details: for sequencing readlength: purified fractions, Example 7; for readlengths compared with 6-hydroxy-2,5,7,8-tetramethylchroman-2-carboxylic acid / no PIDMA: single-molecule, real-time sequencing reactions, FIG. 17
Source text: In yet another aspect, the present invention is directed to illuminated reactions for single molecule analysis, including sequencing of nucleic acids by observing incorporation of nucleotides into a nascent nucleic acid sequence during template-directed polymerase-based synthesis. Such methods, generally referred to as “sequencing-by-incorporation,” involve the observation of the addition of nucleotides or nucleotide analogs in a template-dependent fashion in order to determine the sequence of the template strand. See, e.g., U.S. Pat. Nos. 6,780,591, 7,037,687, 7,344,865, 7,302,146, and Eid, et al. (2009) Science 323:133-138, all of which are incorporated herein by reference in their entireties for all purposes. Processes for performing this detection include the use of fluorescently labeled nucleotide analogs within a confined observation region, e.g., within a nanoscale well and/or tethered, either directly or indirectly to a surface, By using excitation illumination (i.e., illumination of an appropriate wavelength to excite the fluorescent label and induce a detectable signal), the fluorescently labeled bases can be detected as they are incorporated into the nascent strand, thus identifying the nature of the incorporated base, and as a result, the complementary base in the template strand.
One particularly preferred aspect of the invention is in conjunction with the sequencing by incorporation of nucleic acids within an optical confinement, such as a zero mode waveguide, Such reactions involve observation of an extremely small reaction volume in which one or only a few polymerase enzymes and their fluorescent substrates may be present. Zero mode waveguides, and their use in sequencing applications are generally described in U.S. Pat. Nos. 6,917,726 and 7,033,764, and preferred methods of sequencing by incorporation are generally described in Published U.S. Patent Application No. 2003-0044781, the full disclosures of which are incorporated herein by reference in their entireties for all purposes, and in particular for their teachings regarding such sequencing applications and methods. Briefly, arrays of zero mode waveguides (“ZMWs”), configured in accordance with the present invention may be employed as optical confinements for single molecule analytical reactions, e.g., for nucleic acid (e.g., DNA, RNA) sequence determination. In particular, as noted above, these ZMWs provide extremely small observation volumes at or near the transparent substrate surface, also termed the “base” of the ZMW. A nucleic acid synthesis complex, e.g., template sequence, polymerase, and primer, which is immobilized at the base of the ZMW, may then be specifically observed during synthesis to monitor incorporation of nucleotides in a template dependent fashion, and thus provide the identity and sequences of nucleotides in the template strand. This identification is typically accomplished by providing detectable label groups, such as fluorescent labeling molecules, on the nucleotides. In some instances, the labeled nucleotides terminate primer extension, allowing a “one base at a time” interrogation of the complex. If, upon exposure to a given labeled base, a base is incorporated, its representative fluorescent signal may be detected at the base of the ZMW. If no signal is detected, then the base was not incorporated and the complex is interrogated with each of the other bases, in turn. Once a base is incorporated, the labeling group is removed, e.g., through the use of a photocleavable linking group, and where the label was not the terminating group, a terminator, upon the 3′ end of the incorporated nucleotide, may be removed prior to subsequent interrogation.
Experiments were performed to test the performance of pure 6-hydroxy-2,5,7,8-tetramethylchroman-2-carboxylic acid against various mixtures of 6-hydroxy-2,5,7,8-tetramethylchroman-2-carboxylic acid and derivatives thereof. […]

[1] = Brightness of Alexa A-647 dye; details: purified fractions
[2] = Fluorescence correlation spectroscopy (FCS) triplet-state quenching; details: Alexa568 in low oxygen
Experimental: Fluorescence correlation spectroscopy (FCS) is a commonly used technique for experimentally characterizing the dynamics of fluorescent species that was initially introduced in the early 1970's (Magde, D., et al, (1972) Phys. Rev. Lett. 29: 705-708). In FCS, light is focused on a sample in a very small detection volume, and the measured fluorescence intensity fluctuations (due to diffusion, physical or chemical reactions, aggregation, etc.) are analyzed using the temporal autocorrelation. Further details are provided, e.g., in Ehrenberg, M. et al. (1974) Chem Phys 4: 390-401; Elson, E. L., et al. (1974) Biopolymers 13: 1-27; Magde, D., et al. (1974) Biopolymers 13: 29-61; Thompson, N. L. (1991) Topics in Fluorescence Spectroscopy Techniques, Vol. 1, ed. J. R. Lakowicz (New York: Plenum) pp. 337-378; Hess, et al. (2002) Biochemistry 41: 697; and Krichevsky, O., et al. (2002) Rep. Prog. Phys. 65: 251-297.
FCS experiments using the fluorophore Alexa568 in low oxygen were used to monitor the amount of the dye triplet state upon excitation over time as a measure of triplet-state quenching by 6-hydroxy-2,5,7,8-tetramethylchroman-2-carboxylic acid and derivatives thereof. Briefly, these experiments were performed on a confocal microscope setup (Olympus IX71 with water-immersion objective UPlanSApo, 60×) using a single line laser excitation (532 nm) at 0.4-mW intensity and two single photon avalanche detectors (SPAD detectors; Perkin Elmer, Waltham, Mass.). The FCS measurements were done in a reaction buffer containing 50 mM ACES, pH 7.1; 75 mM potassium acetate; and 5 mM DTT. A protocatechuic acid/protocatechuate-3,4-dioxygenase (PCA/PCD) oxygen scavenging system (see, e.g., Aitken, et al. (2007) “An Oxygen Scavenging System for Improvement of Dye Stability in Single-Molecule Fluorescence Experiments,” Biophys J. 94:1826-1835) was included, as well. Correlation curves were generated and recorded by a FLEX digital photon correlator (Correlator.com; Bridgewater, N.J.), and analyzed using Origin8.0 (OriginLabs; Northampton, Mass.).
In these experiments, the photo-induced damage mitigating ability of the preparation of photomodified 6-hydroxy-2,5,7,8-tetramethylchroman-2-carboxylic acid (described above), an aged 6-hydroxy-2,5,7,8-tetramethylchroman-2-carboxylic acid solution (stored at −20° C. for ˜1 year), a freshly prepared 6-hydroxy-2,5,7,8-tetramethylchroman-2-carboxylic acid solution (prepared according to manufacturer's instructions), and fresh preparations treated with various UV exposure regimes were compared. The results are plotted as autocorrelation curves in FIG. 9, and the amplitude of the “hump” at around one microsecond (0.001 millisecond (ms)) to a few microseconds indicates the triplet fraction of the dye, so the smaller the amplitude, the better the triplet quencher. […] The aged solution was the second best performer with an autocorrelation amplitude of ˜0.07 at a lag time of 0.001 ms.
The effectiveness of the photomodified solutions and the purified Fraction A and Fraction B as triplet-state quenchers/radical scavengers was tested by fluorescence correlation spectroscopy (FCS) using Alexa568 in low oxygen, as described above in Example 1. Two different intensity of excitation settings, 0.2 mW and 0.4 mW, were used for power dependence.

[3] = Saturation point of solutions for photomodification; assay type: physicochemical; details: solutions subjected to photomodification
Experimental: Of course, the amount of time for UV irradiation and room light exposure can be adjusted, as can the concentration of the 6-hydroxy-2,5,7,8-tetramethylchroman-2-carboxylic acid solution to be treated. For example, one to twenty-four hours of UV irradiation have been employed, as have 18 to 36 hours room light exposure. In general, and as shown in FIG. 9 described above, increasing UV exposures increase the ability of the mixture to effectively mitigate photo-induced damage, although there was no significant difference between the three, six, and 24 hour exposures (FIG. 9). Further, the solutions of 6-hydroxy-2,5,7,8-tetramethylchroman-2-carboxylic acid subjected to photomodification were typically of a concentration of 95-100 mM, which is near the saturation point for the compound. However, treatment of more or less concentrated solutions in contemplated and known chemical methods may be employed to increase the solubility of the compound prior to treatment.

[4] = Photolysis of Fraction A to Fraction B under UV, followed by reverse phase HPLC; assay type: physicochemical
Experimental: Fraction A was further converted to Fraction B by photolysis in a separate experiment. Specifically, purified Fraction A (reverse phase HPLC peak migration time of 9.791 minutes; FIG. 12A) was subjected to UV irradiation in water for one hour to produce Fraction B (reverse phase HPLC peak migration time of 14.891 minutes; FIG. 12B).

[5] = Example 3, FIG. 11A, 0.2 mW intensity of excitation
[6] = Example 3, FIG. 11B, 0.4 mW intensity of excitation

Row | Structure (SMILES) | sequencing readlength (polymerase) | readlengths compared with 6-hydroxy-2,5,7,8-tetramethylchroman-2-carboxylic acid / no PIDMA (polymerase) | brightness of Alexa A-647 dye [1] | autocorrelation amplitude at a lag time of 0.001 ms [2, 5] | autocorrelation amplitude at a lag time of 0.001 ms [2, 6] | other results
1 | CC1=C(C)C(=O)C2(CCC(C)(C(=O)O)O2)C(C)(O)C1=O (single isomer, unassigned) [fraction 7, 10-hydroxy-2,7,8,10-tetramethyl-6,9-dioxo-1-oxaspiro[4.5]dec-7-ene-2-carboxylic acid] | significantly increase sequencing readlength | longer readlengths | increase the brightness |  |  | 
2 | Cc1c(C)c2c(c(C)c1O)CCC(C)(C(=O)O)O2 (single isomer, unassigned) [6-hydroxy-2,5,7,8-tetramethylchroman-2-carboxylic acid, reference compound] |  | surprisingly similar to having no PIDMA present at all |  |  |  | autocorrelation amplitude at a lag time of 0.001 ms ([2]; Example 1, FIG. 9, 532 nm, 0.4 mW, smaller amplitude = better triplet quencher): ~0.2; proportion of sequencing reactions that attained a readlength of at least one-fifth the maximum (polymerase; 0.5 mM, FIG. 13): about 10%; proportion of sequencing reactions that attained a readlength of at least one-tenth of the maximum readlength (polymerase; 0.5 mM, FIG. 13): 60%; sequencing reactions that attained a readlength of at least 30% of the maximum (polymerase; 0.5 mM, FIG. 13): very few; concentration near the saturation point [3]: 95000 to 100000 µM
3 | CC1=C(C)C(=O)C2(CCC(C)(C(=O)O)O2)C(C)(O)C1=O (single isomer, unassigned) [fraction 5, 10-hydroxy-2,7,8,10-tetramethyl-6,9-dioxo-1-oxaspiro[4.5]dec-7-ene-2-carboxylic acid] | significantly increase sequencing readlength | longer readlengths | increase the brightness |  |  | 
4 | CC(=O)CCC1=C(C)C(=O)C(C)=C(C)C1=O (single isomer, unassigned) [Fraction B, 2,3,5-trimethyl-6-(3-oxobutyl)-1,4-benzoquinone] |  |  |  | ~0.06 | ~0.04 | 
5 | CC1=C(C)C(=O)C(CCC(C)(O)C(=O)O)=C(C)C1=O (single isomer, unassigned) [Fraction A, 2-hydroxy-2-methyl-4-(2,4,5-trimethyl-3,6-dioxocyclohexa-1,4-dienyl)butanoic acid] |  | to a lesser extent |  | ~0.065 | ~0.043 | readlength compared with fresh 6-hydroxy-2,5,7,8-tetramethylchroman-2-carboxylic acid (polymerase; 0.05 mM purified Fraction A with 0.5 mM 6-hydroxy-2,5,7,8-tetramethylchroman-2-carboxylic acid, FIG. 13): much longer readlengths; readlength compared with fresh 6-hydroxy-2,5,7,8-tetramethylchroman-2-carboxylic acid (polymerase; 0.10 mM purified Fraction A with 0.5 mM 6-hydroxy-2,5,7,8-tetramethylchroman-2-carboxylic acid, FIG. 13): much longer readlengths; readlength compared with fresh 6-hydroxy-2,5,7,8-tetramethylchroman-2-carboxylic acid (polymerase; 0.25 mM purified Fraction A with 0.5 mM 6-hydroxy-2,5,7,8-tetramethylchroman-2-carboxylic acid, FIG. 13): much longer readlengths; conversion from Fraction A to Fraction B ([4]; UV irradiation in water for one hour): 80%; time until conversion is essentially complete ([4]; under a portable UV lamp): about four; half-life ([4]; water under UV irradiation, UV irradiation in water, read-out: half-life of conversion to Fraction B): 26 min
